The results in this text go back to US8722683B2, “Benzodioxole piperazine compounds” (Hoffmann LA-Roche Inc., priority 2011, dated 2014).

In one assay the target is 5-HT2A receptor (Homo sapiens (Human), UniProt P28223). Briefly: Radioligand binding ([3H]-ketanserin) to cloned 5-HT2A receptor expressed in HEK-293 EBNA cells. To be noted: human 5-HT2A receptor, HEK293 EBNA membranes, 1.1 nM [3H]-ketanserin. The protocol: (§1) HEK293 EBNA cells were transiently transfected with expression plasmids encoding for the human D2 or D3 or for the human 5-HT2A receptor, respectively. The cells were harvested 48 h post-transfection, washed three times with cold PBS and stored at −80° C. prior to use. The pellet was suspended in cold 50 mM Tris-HCl buffer containing 10 mM EDTA (pH 7.4) and was homogenized with a Polytron (Kinematica AG, Basel, Switzerland) for 20-30 sec at 12.000 rpm. After centrifugation at 48.000×g for 30 min at 4° C., the pellet was resuspended in cold 10 mM Tris-HCl buffer containing 0.1 mM EDTA (pH 7.4), homogenized, and centrifuged as above. This pellet was further resuspended in a smaller volume of ice cold 10 mM Tris-HCl buffer containing 0.1 mM EDTA (pH 7.4) and homogenized with a Polytron for 20-30 sec at 12.000 rpm. The protein content of this homogenate was determined with the Bio-Rad (Bradford) Protein Assay (Biorad Laboratories GmbH, München, Germany) according to the instructions of the manufacturer using gamma globulin as the standard. This homogenate was stored at −80° C. in aliquots and thawed immediately prior to use.
Sequence of 5-HT2A receptor (P28223 whole entry): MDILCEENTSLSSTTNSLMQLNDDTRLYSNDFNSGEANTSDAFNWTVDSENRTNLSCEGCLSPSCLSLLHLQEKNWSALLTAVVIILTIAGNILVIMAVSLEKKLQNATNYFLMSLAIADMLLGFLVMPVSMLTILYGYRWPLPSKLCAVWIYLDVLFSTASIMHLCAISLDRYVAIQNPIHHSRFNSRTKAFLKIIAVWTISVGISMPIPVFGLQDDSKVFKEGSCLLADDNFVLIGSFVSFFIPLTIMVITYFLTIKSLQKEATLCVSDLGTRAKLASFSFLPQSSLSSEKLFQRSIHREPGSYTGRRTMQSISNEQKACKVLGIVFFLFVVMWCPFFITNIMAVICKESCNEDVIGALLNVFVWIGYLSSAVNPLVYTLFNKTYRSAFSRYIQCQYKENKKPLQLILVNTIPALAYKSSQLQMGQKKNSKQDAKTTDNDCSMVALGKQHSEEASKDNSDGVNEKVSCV
(§2) Radioligand Binding Assay
(§3) Aliquots of membrane preparations were thawed at RT, resupended in assay buffer (D2, D3: 50 mM Tris-HCl, 120 mM NaCl, 5 mM MgCl2, 1 mM EDTA, 5 mM KCl, 1.5 mM CaCl2, pH=7.4; 5-HT2A: 50 mM Tris-HCl, 10 mM MgCl2, 1 mM EGTA, pH=7.4), homogenized with a Polytron for 20-30 sec at 12.000 rpm and adjusted to a final concentration of approximately 7.5 μg protein/well (D2, D3) and 15 μg protein/well (5-HT2A), respectively.
(§4) The binding affinity (Ki) of the compounds was determined using radioligand binding. […] The nonspecific binding was determined with equally composed reaction mixtures in the presence of 10 μM unlabelled spiperone. Per well 45 μl of Microscint 40 (Perkin Elmer, Schwerzenbach, Switzerland) was added, plates for sealed, shaken for 20 min and counted for 3 min on a Topcount Microplate Scintillation Counter (Canberra Packard SA, Zürich, Switzerland) with quenching correction.
(§5) The CPM value for each duplicate of a concentration of competing compound was averaged (y1), then the % specific binding was calculated according to the equation (((y1−non-specific)/(total binding−non-specific))×100). Graphs were plotted with the % specific binding using XLfit, a curve fitting program that iteratively plots the data using Levenberg-Marquardt algorithm. The single site competition analysis equation used was y=A+((B−A)/(1+((x/C)D))), where y is the % specific binding, A is the minimum y, B is the maximum y, C is the IC50, x is the log 10 of the concentration of the competing compound and D is the slope of the curve (the Hill Coefficient). […] The affinity constant (Ki) was calculated using the Cheng-Prusoff equation Ki=(IC50/1+([L]/Kd), where [L] is the concentration of radioligand and Kd is the dissociation constant of the radioligand at the receptor as determined by the saturation isotherm.

A further assay deals with D2 receptor (Homo sapiens (Human), UniProt P14416). Briefly: Radioligand binding ([3H]-spiperone) to cloned D2 receptor expressed in HEK-293 EBNA cells. The conditions noted are these: HEK293 EBNA membranes, 0.7 nM [3H]-spiperone. Here is the method: as §1, §2, §3, §4, §5
Sequence of D2 receptor (P14416 whole entry): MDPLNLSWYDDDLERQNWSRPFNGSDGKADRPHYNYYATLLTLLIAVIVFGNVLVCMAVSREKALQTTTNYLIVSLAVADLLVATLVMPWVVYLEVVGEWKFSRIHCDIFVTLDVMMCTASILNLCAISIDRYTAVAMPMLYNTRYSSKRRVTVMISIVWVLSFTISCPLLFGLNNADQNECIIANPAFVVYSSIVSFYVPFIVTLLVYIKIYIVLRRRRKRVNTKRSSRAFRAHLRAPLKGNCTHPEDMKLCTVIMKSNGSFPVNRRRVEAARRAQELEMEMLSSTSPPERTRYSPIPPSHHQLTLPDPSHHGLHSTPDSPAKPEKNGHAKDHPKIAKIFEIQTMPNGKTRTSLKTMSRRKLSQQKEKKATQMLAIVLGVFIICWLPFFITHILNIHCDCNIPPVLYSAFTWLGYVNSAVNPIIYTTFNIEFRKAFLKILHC
The next assay addresses D3 receptor (Homo sapiens (Human), UniProt P35462). The assay is described as follows: Radioligand binding ([3H]-spiperone) to cloned D3 receptor expressed in HEK-293 EBNA cells. The conditions noted are these: HEK293 EBNA membranes, 0.5 nM [3H]-spiperone. Here is the method:
as §1, §2, §3
The binding affinity (Ki) of the compounds was determined using radioligand binding. […] At the end of the incubation, the reaction mixtures were filtered on to unifilter 96-well white microplates with bonded GF/C filters (Packard BioScience, Zürich, Switzerland; preincubated for 1 h in 0.1% polyethylenimine (PEI) in assay buffer) with a Filtermate 196 harvester (Packard BioScience) and washed 3 times with cold assay buffer. The nonspecific binding was determined with equally composed reaction mixtures in the presence of 10 μM unlabelled spiperone. Per well 45 μl of Microscint 40 (Perkin Elmer, Schwerzenbach, Switzerland) was added, plates for sealed, shaken for 20 min and counted for 3 min on a Topcount Microplate Scintillation Counter (Canberra Packard SA, Zürich, Switzerland) with quenching correction.
as §5

Sequence of D3 receptor (P35462 whole entry): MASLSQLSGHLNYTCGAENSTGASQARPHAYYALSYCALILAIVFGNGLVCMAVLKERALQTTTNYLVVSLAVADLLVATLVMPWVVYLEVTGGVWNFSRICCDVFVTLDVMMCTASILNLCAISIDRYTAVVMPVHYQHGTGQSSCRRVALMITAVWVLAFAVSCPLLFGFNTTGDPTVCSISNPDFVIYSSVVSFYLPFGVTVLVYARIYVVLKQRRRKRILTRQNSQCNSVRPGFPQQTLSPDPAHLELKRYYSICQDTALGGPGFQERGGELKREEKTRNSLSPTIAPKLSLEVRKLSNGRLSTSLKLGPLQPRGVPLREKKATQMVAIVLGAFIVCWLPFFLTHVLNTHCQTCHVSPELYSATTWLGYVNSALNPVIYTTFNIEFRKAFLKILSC

The term Ki denotes a measure of affinity in units of concentration, obtained from inhibition or displacement. Read a low Ki as a stronger hold on the target. Take `[2H]C1([2H])Oc2cccc(N3CCN(CC[C@H]4CC[C@H](NC(=O)C[C@H]5COCCO5)CC4)CC3)c2O1` [Example 78, N-trans-{4-[2-(4-Benzo(2,2-D2)-[1,3]dioxol-4-yl-piperazin-1-yl)-ethyl]-cyclohexyl}-2-(S)-[1,4]dioxan-2-yl-acetamide]: the Ki at 5-HT2A receptor amounted to 13.4 nM; on D2 receptor, 198 nM. The matching figures for `O=C(C[C@@H]1CCCOC1)N[C@H]1CC[C@H](CCN2CCN(c3cccc4c3OCO4)CC2)CC1` (single isomer, unassigned) [Example 32, Trans-N-{4-[2-(4-Benzo[1,3]dioxol-4-yl-piperazin-1-yl)-ethyl]-cyclohexyl}-2-(S) or (R)-tetrahydro-pyran-3-yl-acetamide]: 26.2 nM and 137 nM. For `O=C(C[C@H]1COCCO1)N[C@H]1CC[C@H](CCN2CCN(c3cccc4c3OCO4)CC2)CC1` (single isomer, unassigned) [Example 4, Trans-N-{4-[2-(4-Benzo[1,3]dioxol-4-yl-piperazin-1-yl)-ethyl]-cyclohexyl}-2-(S) or (R)[1,4]dioxan-2-yl-acetamide], the Ki at 5-HT2A receptor was 7.78 nM. Regarding `[2H]C1([2H])Oc2cccc(N3CCN(CC[C@H]4CC[C@H](NC(=O)[C@@H](C)OC)CC4)CC3)c2O1` [Example 82, (R)—N-trans{4-[2-(4-Benzo(2,2-D2)-[1,3]dioxol-4-yl-piperazin-1-yl)-ethyl]-cyclohexyl}-2-methoxypropanamide], the Ki turned out to be 5.73 nM at D3 receptor and 148 nM on D2 receptor. The matching figures for `O=C(N[C@H]1CC[C@H](CCN2CCN(c3cccc4c3OCO4)CC2)CC1)C1CC(Cl)C1` (stereo partly drawn) [Example 60, 3-Chloro-cyclobutanecarboxylic acid-trans-N-{4-[2-(4-benzo[1,3]dioxol-4-yl-piperazin-1-yl)-ethyl]-cyclohexyl}-amide]: 2.98 nM and 81.1 nM. The matching figures for `CN(C)C(=O)N[C@H]1CC[C@H](CCN2CCN(c3cccc4c3OCO4)CC2)CC1` [Example 72, N-trans-3-{4-[2-(4-Benzo[1,3]dioxol-4-yl-piperazin-1-yl)-ethyl]-cyclohexyl}-1,1-dimethyl-urea]: 11.2 nM and 30.4 nM. As to `O=C(N[C@H]1CC[C@H](CCN2CCN(c3cccc4c3OCO4)CC2)CC1)C1(O)CCCC1` [Example 36, 1-Hydroxy-cyclopentanecarboxylic acid-trans-N-{4-[2-(4-benzo[1,3]dioxol-4-yl-piperazin-1-yl)-ethyl]-cyclohexyl}-amide], the Ki stood at 11 nM at D3 receptor and 124 nM at D2 receptor. The matching figures for `N#CCC(=O)N[C@H]1CC[C@H](CCN2CCN(c3cccc4c3OCO4)CC2)CC1` [Example 14, Trans-N-{4-[2-(4-Benzo[1,3]dioxol-4-yl-piperazin-1-yl)-ethyl]-cyclohexyl}-2-cyano-acetamide]: 0.91 nM and 76 nM.

As to `CO[C@H](C(=O)N[C@H]1CC[C@H](CCN2CCN(c3cccc4c3OCO4)CC2)CC1)C(C)C` [Example 65, (S)-trans-N-{4-[2-(4-Benzo[1,3]dioxol-4-yl-piperazin-1-yl)-ethyl]-cyclohexyl}-2-methoxy-3-methyl-butyramide], the Ki is 19.9 nM on D3 receptor and 112 nM at D2 receptor. Taken in the same sequence, the figures for `[2H]C1([2H])Oc2cccc(N3CCN(CC[C@H]4CC[C@H](NC(=O)COC)CC4)CC3)c2O1` [Example 79, N-trans-{4-[2-(4-Benzo(2,2-D2) [1,3]dioxol-4-yl-piperazin-1-yl)-ethyl]-cyclohexyl}-2-methoxy-acetamide] were 4.98 nM and 146 nM.

Take `O=C(CC1CCCO1)N[C@H]1CC[C@H](CCN2CCN(c3cccc4c3OCO4)CC2)CC1` (stereo partly drawn) [Example 6, Trans-N-{4-[2-(4-Benzo[1,3]dioxol-4-yl-piperazin-1-yl)-ethyl]-cyclohexyl}-2-(tetrahydro-furan-2-yl)-acetamide]: the figures for the inhibition constant (Ki) at D3 receptor and on D2 receptor were 3.1 nM and 189 nM, respectively. Taken in the same sequence, the figures for `COC(C)(C)C(=O)N[C@H]1CC[C@H](CCN2CCN(c3cccc4c3OCO4)CC2)CC1` [Example 63, Trans-N-{4-[2-(4-Benzo[1,3]dioxol-4-yl-piperazin-1-yl)-ethyl]-cyclohexyl}-2-methoxy-2-methyl-propionamide] were 27.4 nM and 117 nM. The matching figures for `CC(C)CC(=O)N[C@H]1CC[C@H](CCN2CCN(c3cccc4c3OCO4)CC2)CC1` [Example 18, Trans-N-{4-[2-(4-Benzo[1,3]dioxol-4-yl-piperazin-1-yl)-ethyl]-cyclohexyl}-3-methyl-butyramide]: 2.28 nM and 133 nM. The matching figures for `[2H]C1([2H])Oc2cccc(N3CCN(CC[C@H]4CC[C@H](NC(=O)C(C)C)CC4)CC3)c2O1` [Example 80, N-trans-{4-[2-(4-Benzo(2,2-D2) [1,3]dioxol-4-yl-piperazin-1-yl)-ethyl]-cyclohexyl}-isobutyramide]: 2.23 nM and 105 nM. For `COC1(C(=O)N[C@H]2CC[C@H](CCN3CCN(c4cccc5c4OCO5)CC3)CC2)CCCCC1` [Example 41, 1-Methoxy-cyclohexanecarboxylic acid-Trans-N-{4-[2-(4-benzo[1,3]dioxol-4-yl-piperazin-1-yl)-ethyl]-cyclohexyl}-amide], the Ki at D3 receptor came out at 12.5 nM; at D2 receptor it was 251 nM. Regarding `COC(=O)N[C@H]1CC[C@H](CCN2CCN(c3cccc4c3OCO4)CC2)CC1` [Example 12, Trans-{4-[2-(4-Benzo[1,3]dioxol-4-yl-piperazin-1-yl)-ethyl]-cyclohexyl}-carbamic acid methyl ester], the Ki on D3 receptor was 1.29 nM; on D2 receptor, 68.5 nM. For `Cc1cc(CC(=O)N[C@H]2CC[C@H](CCN3CCN(c4cccc5c4OCO5)CC3)CC2)on1` [Example 13, Trans-N-{4-[2-(4-Benzo[1,3]dioxol-4-yl-piperazin-1-yl)-ethyl]-cyclohexyl}-2-(3-methyl-isoxazol-5-yl)-acetamide], the values for the Ki at D3 receptor and on D2 receptor were 1.34 nM and 314 nM, respectively. The matching figures for `O=C(N[C@H]1CC[C@H](CCN2CCN(c3cccc4c3OCO4)CC2)CC1)C1(O)CCCCC1` [Example 37, 1-Hydroxy-cyclohexanecarboxylic acid-trans-N-{4-[2-(4-benzo[1,3]dioxol-4-yl-piperazin-1-yl)-ethyl]-cyclohexyl}-amide]: 15.7 nM and 175 nM. On 5-HT2A receptor, `O=C(C[C@@H]1COCCO1)N[C@H]1CC[C@H](CCN2CCN(c3cccc4c3OCO4)CC2)CC1` (single isomer, unassigned) [Example 5, Trans-N-{4-[2-(4-Benzo[1,3]dioxol-4-yl-piperazin-1-yl)-ethyl]-cyclohexyl}-2-(R) or (S)-[1,4]dioxan-2-yl-acetamide] returned a Ki of 12.3 nM.

On to `O=C(C[C@H]1C[C@H](CO)C1)N[C@H]1CC[C@H](CCN2CCN(c3cccc4c3OCO4)CC2)CC1` [Example 74, N-trans-{4-[2-(4-Benzo[1,3]dioxol-4-yl-piperazin-1-yl)-ethyl]-cyclohexyl}-2-(3-hydroxymethyl-cyclobutyl)-acetamide], for which the Ki on D3 receptor amounted to 2.44 nM; at D2 receptor it was 117 nM.
